Test results published in patent publication US8778643B2, “Methods for increasing lipid levels and producing triacylglycerols in algae” (priority 2012, dated 2014).
Where two headings read alike, the source gives them in different places.

Columns and labels:
[1] = target: PKC; conditions: PKC; cited from earlier work
[2] = system: Nannochloropsis sp.; assay: Microplate assay: increase of lipid production (Table 17); format: cell-based; conditions: best conc. 2.4 nM
Excerpt: We also tested a collection with more antioxidants, kinase inhibitors, and further compounds for increase of lipid production with N. salina, P. tricornutum, N. oculata, and Nannochloropsis sp.

[3] = system: Nannochloris sp.; assay: Microplate assay: growth (absorbance 680 nm) and intracellular lipids (Nile Red fluorescence); format: cell-based
Procedure: (§1) Stock cultures were aerated by stirring with bubbling air (homemade manifold with Petco air pump, 2-4% CO2) or by orbital shaking (Thermo Scientific MAXQ 2000) at a constant speed of 150 rpm at 22±3° C. with a 16:8 hour light/dark cycle. Stocks were kept at stationary phase for use. Algae were prepared as dictated by culture center.
(§2) Compounds were selected based on reported biological activity in non-microalgae organisms. To ensure that compounds retained their quality, they were stored under advised conditions after purchasing from the manufacturer. Solutions of all assay compounds were prepared as 10 mM stock solutions by dissolving in DMSO in 2-dram amber vials and then stored in darkness −20° C. 96-well PCR plates were used to create a stock plate layout that was then transferred to the algae microplates. A plate map was used to distribute each compound to a well based on molecule name, collection number, and CAS number. For 20 μM and 200 nM assay plates, 10 mM compound stock in DMSO was diluted into plate maps of 5 mM and 50 μM assay stocks, respectively.
(§3) All materials for assay experiments were autoclaved before each use to maintain axenic algae cultures. Algae species were checked for homogeneity using a TS-100 light microscope (Nikon, Japan). […] Diluted stock solutions were made immediately prior to use for consistency and optimal plate growth. Cell density was measured on a Thermo Scientific Genesys 10S Vis Spectrophotometer (ThermoFisher, San Jose), using a 1 mL cuvette at 680 nm.
(§4) Plates were originally run in triplicate, before replicates were increased to quadruplicate, along with a separate control plate to compare growth. Due to extensive evaporation in exterior wells over time, our unique algae plate layout was designed to use the 60 interior wells out of 96 wells for the experiment. The 36 outer wells were filled with Millipore water and media to prevent evaporation and edge effects in the inner algae wells, as well as serve as blanks. The 60 wells with algae contained a total volume of 251 μL (100 μL of media+DMSO compound stock +150 μL dilute algae stock). For 20 μM and 200 nM assay plates, 10 mM compound stock in DMSO is diluted into plate maps of 5 mM and 50 μM assay stocks, respectively. […] Plates were parafilmed during growth to limit the amount of evaporation that can occur. Plates were numbered, and numerically ordered to ensure they got the same shaker space.
(§5) The shakers are kept at a constant shaking of 150 rpm. Ambient temperature is 22±3° C.

[4] = system: Nannochloropsis salina
[5] = system: FABI; conditions: cited from earlier work
[6] = system: Phaeodactylum tricornutum; assay: Microplate assay: growth (absorbance 680 nm) and intracellular lipids (Nile Red fluorescence); format: cell-based
Procedure: as §1, §2, §3, §4, §5

[7] = system: Nannochloropsis oculata; conditions: for % Increase based on Nile Red Fluorescence Intensity: DMSO delivery, added t=day 0
[8] = system: Nannochloropsis oculata; assay: 500 mL batch culture: growth, dry weight and lipid extract (gravimetric); format: cell-based; conditions: for increase in lipid levels: 500 mL batch cultures, gravimetric (Table 30); for Change in Lipids: gravimetric, relative to averaged control without DMSO; for Specific Growth Rate: mid-exponential growth phase
Procedure: (§6) Batch cultures were grown in 500 mL Pyrex media bottles with stirring and air bubbling (homemade manifold with Petco air pump, 2-4% CO2). Incoming air was sterile filtered by Polyvent 4 disposable filters (Whatman, Kent, UK). […] To minimize bacterial contamination, all equipment and materials were autoclaved and media was added to flask in a Purifier Vertical Clean bench (Labconco, Kansas City, Mo.). […] The amount of DMSO is standardized for all experiments to 0.4%.
(§7) For all compound cultures, the 2 mL DMSO stock solution was added to media (without algae) first and mixed well. Control cultures were grown without DMSO. DMSO controls consisted of 0.04-1.0% DMSO. After the addition of algae and media, the container was plugged with a bug stopper vented closure cap and mixed thoroughly. Absorbance is measured immediately for Day 0 analysis. Afterward, absorbance was measured every 1-2 days with a cuvette (1 mL volume) on the Thermo Scientific Genesys 10S V is Spectrophotometer (ThermoFisher, San Jose) at 680 nm.
(§8) Batch cultures were also repeated in triplicate and compared to a control culture grown at the same time. Algae were harvested and lipids were extracted for gravimetric analysis.
(§9) The nonpolar algal extracts were harvested from 500 mL cultures when indicated on growth curves, a minimum of 3 days into stationary phase.
(§10) Cell density was monitored by measuring absorbance at 680 nm every 1-2 days.
(§11) 500-mL cultures were harvested 6 days into stationary phase based on absorbance values. Cells were concentrated by centrifugation and lyophilization to remove water. Nonpolar lipids were extracted by sonication and solvent (chloroform-methanol and PBS buffer). […] Changes in lipid levels for batch cultures were determined by crude lipid extract mass.

[9] = system: Nannochloropsis salina; assay: as above; format: cell-based
[10] = system: Nannochloris sp.; assay: as above; format: cell-based; conditions: for increase in lipid levels: 500 mL batch cultures, gravimetric (Table 30); for Lipid productivity / Change in Lipids / Specific Growth Rate: Nannochloris sp., 500 mL culture; for Change in Lipids: gravimetric, relative to averaged control without DMSO; for Specific Growth Rate: mid-exponential growth phase
Procedure: as §6, §7, §8, §9, §10, §11

[11] = system: microalgae; assay: 500 mL batch culture (growth, gravimetric lipids), algae strain not stated; format: cell-based; conditions: 500 mL batch cultures (Table 30)
[12] = system: Nannochloropsis oculata; assay: Lipid composition of batch culture extracts (fatty acid saturation / PUFA by 1H NMR, MALDI-TOF, GC/MS); format: cell-based; conditions: for SFAs (% of total lipids) / n3 PUFAs (% of UFAs) / All other PUFAs and MUFAs (% of UFAs) / UFAs (% of total lipids): 1H NMR; for SFAs (% of total lipids): Normal 24; for n3 PUFAs (% of UFAs): Normal 37; for All other PUFAs and MUFAs (% of UFAs): Normal 63; for UFAs (% of total lipids): Normal 76
Procedure: The nonpolar algal extracts were harvested from 500 mL cultures when indicated on growth curves, a minimum of 3 days into stationary phase. […] Cells were crushed and nonpolar lipids were extracted by sonication (Fisher Scientific Model 120 Sonic Dismembrator, ThermoFisher, San Jose) for 1 minute in chloroform, followed by chloroform-methanol extractions, washed with PBS butter, and dried under vacuum.^55-60 The crude non-polar algae extracts were then analyzed by ^1H Nuclear Magnetic Resonance (^1H NMR) for verification of TAG presence and examination of the purity of the extract (determination of level of chlorophyll). The extracts were then divided for analysis; one part for transesterification, one part to save as crude extract, and one part for SPE separation and MALDI-TOF analysis of TAGs.
Triacylglycerols can be isolated by solid-phase extraction (SPE) with 500 mg silica SPE cartridges (Silicycle, Quebec). The nonpolar extract is dissolved in 300 μL hexanes, and loaded on the SPE cartridge primed with hexanes. A mixture of 80:20:1 hexanes/diethyl ether/acetic acid was used as mobile phase to elute the TAGs.^61 SPE removes any chlorophyll in this process. Residual polar fraction containing polar lipids and chlorophyll was obtained by elution with acetone. All extracts and TAG fractions were dried under vacuum and stored under argon in amber vials at −20° C. before spectroscopic analysis. After SPE, the purified TAG fraction was reanalyzed with ^1H NMR spectroscopy for TAG characterization.
The TOF was in Reflectron mode with laser intensity from 5500-6500 Volts. Each acquisition consisted of 2500 shots with a focus mass of 900 Da, and a scan range of m/z 400-1100. Multiple acquisition scans were performed at different laser intensities to determine optimal conditions. Samples for the MALDI-TOF were diluted to 5 mg/mL in hexane, and spotted in the fast-evaporation method in a 1:2 ratio with DHB (2,5-dihydroxybenzoic acid) as the matrix. Re-spotting with methanol allowed for the matrix and sample to mix without hexane interactions, and allowed for better crystal formation. All samples on MALDI plate were allowed to dry before MS analysis. Data was normalized to base peak in all cases.
After the initial weight was recorded, the nonpolar extract set aside for transesterification was dissolved in 3.0 mL of 0.6 M sulfuric acid in methanol and stirred vigorously at 60° C. for 45 minutes.
Initial GC/MS temperature was 50° C. and end was 200° C. over at a one hour period for optimal FAME peak separation.
Peak assignment of fatty acids and their derivatives are based on NMR spectroscopic studies of previously reported algal lipid extracts^9 and comparison to standards such as olive oil (ACROS) and fatty acid mixtures.
We developed a quick and robust method to screen if the screened compound effect fatty acid saturation levels using ^1H NMR spectroscopy. The amount of saturated fatty acids (SFA), monounsaturated fatty acids (MUFAs), and polyunsaturated fatty acids (PUFAs) was determined using peak area ratios.
Calculated based on ^1H NMR integral ratios for the proton signals for the methyl group of PUFA components vs. the methyl groups of monounsaturated and saturated components.

[13] = microplate assay, multiple concentrations
[14] = N. oculata, 500 mL culture, 400 nM
[15] = 200 nM, initial microplate screen, relative to control
[16] = microplate dose-response screening
[17] = N. oculata, 4 nM, harvested day 6 of stationary phase, n=3
[18] = N. oculata, 500 mL culture, 4 nM
[19] = 20 μM, initial microplate screen, relative to control

COC(=O)[C@@]1(O)C[C@H]2O[C@]1(C)n1c3ccccc3c3c4c(c5c6ccccc6n2c5c31)C(=O)NC4 [K-252a]
Ki [1]: 25 nM

Cc1c(C)c2c(c(C)c1O)CC[C@@](C)(CCC[C@H](C)CCC[C@H](C)CCCC(C)C)O2 (racemic) [DL-α-Tocopherol (Vitamin E), (2R)-2,5,7,8-tetramethyl-2-[(4R,8R)-4,8,12-trimethyltridecyl]-3,4-dihydrochromen-6-ol]
% Inc [2]: 31.44%

O=C(O[C@@H]1Cc2c(O)cc(O)cc2O[C@@H]1c1ccc(O)c(O)c1)c1cc(O)c(O)c(O)c1 [(−)-epicatechin gallate, [(2R,3R)-2-(3,4-dihydroxyphenyl)-5,7-dihydroxy-3,4-dihydro-2H-chromen-3-yl] 3,4,5-trihydroxybenzoate]
effect on lipid production / lipid levels [3, 13]: lipid production increased
effect on lipid production / lipid levels [4, 13]: lipid production increased
IC50 [5]: 200 nM
% Inc ([6]; increase of lipid production, P. tricornutum, best conc. 156 nM): 77.89%
effect on lipid production / lipid levels [6, 13]: lipid production increased
concentration of the highest lipid increase ([6]; microplate, catechin screen (FIG. 14)): 39 to 56 nM
effect on lipid production / lipid levels [7, 13]: lipid production increased

CCN(CC)CCCC(C)Nc1c2ccc(Cl)cc2nc2ccc(OC)cc12.Cl.Cl (stereo not shown) [Quinacrine, 6-Chloro-9-(4-diethylamino-1-methylbutyl-amino)-2-methoxyacridine dihydrochloride]
% Increase based on Nile Red Fluorescence Intensity [3]: 135%
% Lipid increase based on Nile red fluorescence intensity ([3]; Nannochloris sp., 49 nM, (water), t=day 0): 136%
% Increase based on Nile Red Fluorescence Intensity ([3]; Nannochloris sp., 49 nM, dissolved in water, added t=day 0): 136%
increase in intracellular lipids compared to the control (Nile red) ([3]; in water, dose-response microplate screening): more than 100%
Nile Red percent increase ([4]; 55 nM, dose-response microplate screen): 103%
increase in lipid levels [8]: 51%
Lipid productivity [8, 14]: 5.2 ± 0.6 mgL^−1day^−1
Change in Lipids [8, 14]: 51%
Specific Growth Rate [8, 14]: 0.18 ± 0.04 day⁻¹
Lipid productivity ([9]; N. salina, 500 mL culture, 40 nM): 4.5 ± 1.0 mgL^−1day^−1
Lipid content ([9]; N. salina, 500 mL culture, 40 nM, dried lipid extract per dry biomass): 26.5 ± 3.9 % w/w
Change in Lipids ([9]; N. salina, 500 mL culture, 40 nM, gravimetric, relative to averaged control without DMSO): 6%
Specific Growth Rate ([9]; N. salina, 500 mL culture, 40 nM, mid-exponential growth phase): 0.25 ± 0.02 day⁻¹
increase in lipid levels [10]: 31%
Lipid productivity ([10]; 40 nM): 4.2 ± 1.1 mgL^−1day^−1
Change in Lipids ([10]; 40 nM): 31%
Specific Growth Rate ([10]; 40 nM): 0.18 ± 0.01 day⁻¹
% Lipid increase based on Nile red fluorescence intensity ([7]; N. oculata, 244 nM, DMSO, t=day 0): 106%
% Increase based on Nile Red Fluorescence Intensity ([7]; N. oculata, 61 pM): 100%
% Increase based on Nile Red Fluorescence Intensity ([7]; N. oculata, 244 pM): 106%
% Increase based on Nile Red Fluorescence Intensity ([7]; N. oculata, 976 pM): 93%
% Increase based on Nile Red Fluorescence Intensity ([7]; N. oculata, 4 nM): 75%
% Increase based on Nile Red Fluorescence Intensity ([7]; N. oculata, 15.6 nM): 66%
effect on growth and lipid levels [11]: positive increases in growth and lipid levels
SFAs (% of total lipids) ([12]; 4 nM): 53 % of total lipids
n3 PUFAs (% of UFAs) ([12]; 4 nM): 45 % of UFAs
All other PUFAs and MUFAs (% of UFAs) ([12]; 4 nM): 55 % of UFAs
UFAs (% of total lipids) ([12]; 4 nM): 47 % of total lipids
SFAs (%) ([12]; N. oculata, 400 nM, n=1, Normal 0 ± 1): 3%
MUFAs (%) ([12]; N. oculata, 400 nM, n=1, Normal 4 ± 7): 12%
n3 PUFAs (%) ([12]; N. oculata, 400 nM, n=1, Normal 28 ± 4): 17%
PUFAs (%) ([12]; N. oculata, 400 nM, n=1, Normal 96 ± 7): 76%

C=C[C@@]1(C)CC(=O)[C@]2(O)[C@@]3(C)[C@@H](O)CCC(C)(C)[C@@H]3[C@H](O)[C@H](OC(C)=O)[C@@]2(C)O1 [Forskolin, (3R,4aR,5S,6S,6aS,10S,10aR,10bS)-6,10,10b-Trihydroxy-3,4a,7,7,10a-pentamethyl-1-oxo-3-vinyldodecahydro-1H-benzo[f]chromen-5-yl acetate]
Nile Red percent increase ([3]; 13 nM, dose-response microplate screen): 121%
Nile Red percent increase ([3]; 41.2 nM, dose-response microplate screen): 118%
Absorbance (percent increase) [3, 15]: −5.5%
Nile Red percent increase [3, 15]: 60.6%
Nile Red Fluorescence % Increase ([3]; Nannochloris sp., compounds tested at 20 μM, initial screening, p<0.05): 45.3%
lipid increase relative to the control [3, 16]: ≥ 100%
lipid increase relative to the control [4, 16]: ~40%
effect on growth and lipid levels ([8]; 500 mL batch culture): increases in lipid production
increase in lipid levels [8]: 84%
Absorbance at harvest [8, 17]: 2.10
Dry weight [8, 17]: 353.57 mg
Extract Weight [8, 17]: 88.67 mg
Number of Cells [8, 17]: 2.46E+09
Recovered Weight [8, 17]: 344.90 mg
Lipid productivity [8, 18]: 6.4 ± 1.2 mgL^−1day^−1
Lipid content ([8]; N. oculata, 500 mL culture, 4 nM, dried lipid extract per dry biomass): 25.6 ± 1.8 % w/w
Change in Lipids [8, 18]: 84%
Specific Growth Rate [8, 18]: 0.17 ± 0.02 day⁻¹
effect on growth and lipid levels ([9]; 500 mL batch culture): increases in lipid production
Absorbance (percent increase) [6, 15]: −1.2%
Nile Red percent increase [6, 15]: 103.6%
lipid increase relative to the control [6, 16]: ~40%
effect on growth and lipid levels ([10]; 500 mL batch culture): increases in lipid production
increase in lipid levels [10]: 51%
Lipid productivity ([10]; 10 μM): 4.5 ± 1.7 mgL^−1day^−1
Change in Lipids ([10]; 10 μM): 51%
Specific Growth Rate ([10]; 10 μM): 0.15 ± 0.05 day⁻¹
Absorbance (percent increase) [7, 19]: −17.3%
Nile Red percent increase [7, 19]: 50.4%
lipid increase relative to the control [7, 16]: ≥ 100%
effect on growth and lipid levels [11]: positive increases in growth and lipid levels
SFAs (% of total lipids) ([12]; 40 nM): 59 % of total lipids
n3 PUFAs (% of UFAs) ([12]; 40 nM): 61 % of UFAs
All other PUFAs and MUFAs (% of UFAs) ([12]; 40 nM): 39 % of UFAs
UFAs (% of total lipids) ([12]; 40 nM): 41 % of total lipids
